In US20240246967A1, “AXL COMPOUNDS” (ARCUS BIOSCIENCES, INC., priority 2021, published 2024):

Assays:
human MER = biological target: T1, human MER (Homo sapiens, UniProt Q12866); assay: HTRF KinEASE-TK biochemical potency assay, MER; conditions: 1 nM MER, 700 μM ATP, 800 nM TK Substrate-biotin
T1 construct: purchased Invitrogen
T1 sequence (Q12866 21-999): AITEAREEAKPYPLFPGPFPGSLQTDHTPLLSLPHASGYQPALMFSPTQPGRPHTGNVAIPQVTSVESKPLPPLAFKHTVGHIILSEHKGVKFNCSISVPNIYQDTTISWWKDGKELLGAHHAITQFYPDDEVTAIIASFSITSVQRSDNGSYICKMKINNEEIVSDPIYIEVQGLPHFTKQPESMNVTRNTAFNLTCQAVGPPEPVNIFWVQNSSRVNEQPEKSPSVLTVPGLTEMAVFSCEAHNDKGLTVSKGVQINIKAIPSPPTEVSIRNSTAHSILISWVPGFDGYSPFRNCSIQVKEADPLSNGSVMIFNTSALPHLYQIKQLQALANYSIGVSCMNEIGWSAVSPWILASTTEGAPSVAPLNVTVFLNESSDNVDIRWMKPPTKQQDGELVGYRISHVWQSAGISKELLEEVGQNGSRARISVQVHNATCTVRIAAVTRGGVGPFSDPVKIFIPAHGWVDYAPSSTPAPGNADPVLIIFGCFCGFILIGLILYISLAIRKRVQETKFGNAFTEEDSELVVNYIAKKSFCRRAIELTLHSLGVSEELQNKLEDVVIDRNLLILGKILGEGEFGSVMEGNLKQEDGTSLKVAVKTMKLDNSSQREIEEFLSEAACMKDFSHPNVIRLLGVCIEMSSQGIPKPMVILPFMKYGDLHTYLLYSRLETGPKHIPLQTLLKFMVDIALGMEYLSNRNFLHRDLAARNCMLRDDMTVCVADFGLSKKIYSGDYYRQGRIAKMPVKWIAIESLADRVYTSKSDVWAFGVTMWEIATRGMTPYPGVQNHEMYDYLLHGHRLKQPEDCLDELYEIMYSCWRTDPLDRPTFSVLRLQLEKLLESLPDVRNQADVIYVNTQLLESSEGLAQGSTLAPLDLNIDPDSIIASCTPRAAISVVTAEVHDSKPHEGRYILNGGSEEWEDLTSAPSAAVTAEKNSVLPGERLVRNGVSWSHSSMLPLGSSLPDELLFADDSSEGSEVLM
How it was run: (§1)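 Recombinant human kinase preincubated 1 h at RT with compound, then reacted 2 h at RT with final 5 nM AXL or 1 nM TYRO3/MER, 800 nM TK Substrate-biotin and 700 μM ATP in HEPES pH 7.4, 10 mM MgCl2, 1% DMSO. Phosphorylation read by HTRF 665/620 ratio, expressed as percent activity.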

human TYRO3 = biological target: T2, human TYRO3 (Homo sapiens, UniProt Q06418); assay: HTRF KinEASE-TK biochemical potency assay, TYRO3; conditions: 1 nM TYRO3, 700 μM ATP, 800 nM TK Substrate-biotin
T2 construct: purchased Invitrogen
T2 sequence (Q06418 41-890): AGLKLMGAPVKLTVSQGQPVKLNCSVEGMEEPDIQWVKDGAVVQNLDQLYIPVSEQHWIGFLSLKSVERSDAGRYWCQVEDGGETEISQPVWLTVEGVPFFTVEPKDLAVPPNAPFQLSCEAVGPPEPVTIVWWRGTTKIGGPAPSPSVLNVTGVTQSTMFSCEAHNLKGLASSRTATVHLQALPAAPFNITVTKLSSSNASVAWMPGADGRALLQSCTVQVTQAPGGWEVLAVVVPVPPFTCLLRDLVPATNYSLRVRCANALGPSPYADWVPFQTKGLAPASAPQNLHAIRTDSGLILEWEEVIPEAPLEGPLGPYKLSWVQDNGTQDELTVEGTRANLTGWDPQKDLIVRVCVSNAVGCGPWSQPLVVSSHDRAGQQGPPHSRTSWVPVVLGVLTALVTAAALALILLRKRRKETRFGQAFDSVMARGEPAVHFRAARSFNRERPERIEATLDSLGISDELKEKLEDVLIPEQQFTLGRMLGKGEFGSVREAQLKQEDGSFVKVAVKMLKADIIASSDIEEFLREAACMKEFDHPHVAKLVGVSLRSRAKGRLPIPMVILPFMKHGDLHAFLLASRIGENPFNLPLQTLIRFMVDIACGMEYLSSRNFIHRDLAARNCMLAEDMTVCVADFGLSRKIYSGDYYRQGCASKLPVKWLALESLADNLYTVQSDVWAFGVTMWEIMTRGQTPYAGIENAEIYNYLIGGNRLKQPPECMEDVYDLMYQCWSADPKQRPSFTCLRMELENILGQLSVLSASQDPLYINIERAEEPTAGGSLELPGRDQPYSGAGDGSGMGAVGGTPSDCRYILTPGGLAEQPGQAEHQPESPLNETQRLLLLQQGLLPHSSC
How it was run: as §1

SMILES | IC50 (human MER) [µM] | IC50 (human TYRO3) [µM]
C[C@@H]1CCCN1C1(C)CCc2ccc(-c3cnc4[nH]nc(-c5ccc(C(N)=O)c(Cl)c5)c4c3)cc2CC1 (stereo partly drawn) [Example 68, 2-Chloro-4-(5-{7-methyl-7-[(2R)-2-methylpyrrolidin-1-yl]-6,7,8,9-tetrahydro-5H-benzo[7]annulen-2-yl}-1H-pyrazolo[3,4-b]pyridin-3-yl)benzamide] | < 0.1 | < 0.1
Cc1cc(-c2n[nH]c3ncc(-c4ccc5c(c4)CC[C@@H](N4CCCC4)CC5)cc23)cc(F)c1C(N)=O [Example 83, (S)-2-Fluoro-6-methyl-4-(5-(7-(pyrrolidin-1-yl)-6,7,8,9-tetrahydro-5H-benzo[7]annulen-2-yl)-1H-pyrazolo[3,4-b]pyridin-3-yl)benzamide] | < 0.1 | < 0.1
C[C@@H]1CCCN1C1CCc2ccc(-c3cnc4[nH]nc(-c5ccc(C6(O)CCOC6)c(Cl)c5)c4c3)cc2CC1 (stereo partly drawn) [Example 63, 3-[2-Chloro-4-(5-{7-[(2R)-2-methylpyrrolidin-1-yl]-6,7,8,9-tetrahydro-5H-benzo[7]annulen-2-yl}-1H-pyrazolo[3,4-b]pyridin-3-yl)phenyl]oxolan-3-ol] | 0.1 to 1 | 0.1 to 1
COC1CCN(C(=O)c2ccc(-c3n[nH]c4ncc(-c5ccc6c(c5)CCC(C)(N5CCC[C@H]5C)CC6)cc34)cc2)CC1 (stereo partly drawn) [Example 89, (4-Methoxypiperidin-1-yl)(4-(5-(7-methyl-7-((R)-2-methylpyrrolidin-1-yl)-6,7,8,9-tetrahydro-5H-benzo[7]annulen-2-yl)-1H-pyrazolo[3,4-b]pyridin-3-yl)phenyl)methanone] | 0.1 to 1 | 0.1 to 1
CC1(N2CCOCC2)CCc2ccc(-c3cnc4[nH]nc(-c5ccc(S(=O)(=O)C6CC6)cc5)c4c3)cc2CC1 (stereo not drawn) [Example 2, 4-(2-{3-[4-(Cyclopropanesulfonyl)phenyl]-1H-pyrazolo[3,4-b]pyridin-5-yl}-7-methyl-6,7,8,9-tetrahydro-5H-benzo[7]annulen-7-yl)morpholine] | > 1 | > 1
NC(=O)c1ccc(-c2n[nH]c3ncc(-c4ccc5c(c4)CCC(N4CCCC4)CC5)cc23)cc1 (stereo not drawn) [Example 78, 4-(5-(7-(Pyrrolidin-1-yl)-6,7,8,9-tetrahydro-5H-benzo[7]annulen-2-yl)-1H-pyrazolo[3,4-b]pyridin-3-yl)benzamide] | 0.1 to 1 | < 0.1
C[C@@H]1CCCN1C1(C)CCc2ccc(-c3cnc4[nH]nc(-c5ccc(C(=O)NC6CCOCC6)cc5)c4c3)cc2CC1 (stereo partly drawn) [Example 88, 4-(5-(7-Methyl-7-((R)-2-methylpyrrolidin-1-yl)-6,7,8,9-tetrahydro-5H-benzo[7]annulen-2-yl)-1H-pyrazolo[3,4-b]pyridin-3-yl)-N-(tetrahydro-2H-pyran-4-yl)benzamide] | > 1 | 0.1 to 1
C[C@@H]1CCCN1C1(C)CCc2ccc(-c3cnc4[nH]nc(-c5ccc(S(=O)(=O)C6CC6)cc5)c4c3)cc2CC1 (stereo partly drawn) [Example 1, 3-(4-(Cyclopropylsulfonyl)phenyl)-5-(7-methyl-7-((R)-2-methylpyrrolidin-1-yl)-6,7,8,9-tetrahydro-5H-benzo[7]annulen-2-yl)-1H-pyrazolo[3,4-b]pyridine] | 0.1 to 1 | < 0.1
O=C(c1ccc(-c2n[nH]c3ncc(-c4ccc5c(c4)CC[C@@H](N4CCCC4)CC5)cc23)cc1Cl)N1CCC(O)CC1 [Example 85, (S)-(2-Chloro-4-(5-(7-(pyrrolidin-1-yl)-6,7,8,9-tetrahydro-5H-benzo[7]annulen-2-yl)-1H-pyrazolo[3,4-b]pyridin-3-yl)phenyl)(4-hydroxypiperidin-1-yl)methanone] | 0.1 to 1 | < 0.1
O=C(c1ccc(-c2n[nH]c3ncc(-c4ccc5c(c4)CC[C@@H](N4CCCC4)CC5)cc23)cc1Cl)N1CCNCC1 [Example 82, (S)-(2-Chloro-4-(5-(7-(pyrrolidin-1-yl)-6,7,8,9-tetrahydro-5H-benzo[7]annulen-2-yl)-1H-pyrazolo[3,4-b]pyridin-3-yl)phenyl)(piperazin-1-yl)methanone] | < 0.1 | < 0.1
NC(=O)c1ccc(-c2n[nH]c3ncc(-c4ccc5c(c4)CCC(N4CCCC4)CC5)cc23)cc1C(F)(F)F (stereo not drawn) [Example 80, 4-(5-(7-(Pyrrolidin-1-yl)-6,7,8,9-tetrahydro-5H-benzo[7]annulen-2-yl)-1H-pyrazolo[3,4-b]pyridin-3-yl)-2-(trifluoromethyl)benzamide] | 0.1 to 1 | < 0.1
NC(=O)c1ccc(-c2n[nH]c3ncc(-c4ccc5c(c4)CC[C@@H](N4CCCC4)CC5)cc23)cc1Cl [Example 84, (S)-2-Chloro-4-(5-(7-(pyrrolidin-1-yl)-6,7,8,9-tetrahydro-5H-benzo[7]annulen-2-yl)-1H-pyrazolo[3,4-b]pyridin-3-yl)benzamide] | < 0.1 | < 0.1
CCC1(N2CCC[C@@H]2CO)CCc2ccc(-c3cnc4[nH]nc(-c5ccc(C(N)=O)c(Cl)c5)c4c3)cc2CC1 (stereo partly drawn) [Example 74, 2-Chloro-4-(5-{7-ethyl-7-[(2R)-2-(hydroxymethyl)pyrrolidin-1-yl]-6,7,8,9-tetrahydro-5H-benzo[7]annulen-2-yl}-1H-pyrazolo[3,4-b]pyridin-3-yl)benzamide] | < 0.1 | < 0.1
CC(C)NC(=O)c1ccc(-c2n[nH]c3ncc(-c4ccc5c(c4)CCC(C)(N4CCC[C@H]4C)CC5)cc23)cc1 (stereo partly drawn) [Example 70, 4-(5-{7-Methyl-7-[(2R)-2-methylpyrrolidin-1-yl]-6,7,8,9-tetrahydro-5H-benzo[7]annulen-2-yl}-1H-pyrazolo[3,4-b]pyridin-3-yl)-N-(propan-2-yl)benzamide] | > 1 | 0.1 to 1
C[C@@H]1CCCN1C1(C)CCc2ccc(-c3cnc4[nH]nc(-c5ccc(C(=O)N6CCC6)cc5)c4c3)cc2CC1 (stereo partly drawn) [Example 76, (2R)-1-(2-{3-[4-(Azetidine-1-carbonyl)phenyl]-1H-pyrazolo[3,4-b]pyridin-5-yl}-7-methyl-6,7,8,9-tetrahydro-5H-benzo[7]annulen-7-yl)-2-methylpyrrolidine] | 0.1 to 1 | 0.1 to 1
